Active and inactive are the calls of the source.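 The calls were made as follows: active = compounds giving half or more protection of infected cells from virus-caused growth loss, again on retest; inactive = the rest.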
Tested on: CEM cells HIV-1 protection, formazan growth assay
Test: NCI AIDS Antiviral Assay
Conditions: for IC50: measured here: growth of uninfected CEM cells
Summary of the method: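 Five concentrations of each compound were applied to infected and uninfected human CEM cells. Protection from HIV-1 was judged from growth measured with a soluble formazan assay.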

SMILES	EC50 [µM]	IC50 [µM]	outcome
O=C(Nc1ccc(Cl)cc1)P(=O)(O)c1ccccc1	> 200	> 200	–
COc1ccccc1/C(=N\OCCC(=O)O)c1cccs1	–	–	inactive
O=c1[nH]c(=O)n([C@@H]2C[C@H](CO)[C@H](O)C2)cc1/C=C/Br	> 759	275	–
CCOC(=O)C1(C#N)C2(C#N)C(N)=NC(ON=C(C)C)(ON=C(C)C)C12C#N (configuration not stated)	> 200	> 200	–
Nc1nc(NCCOCP(=O)(O)O)c([N+](=O)[O-])c(=O)[nH]1	178	> 200	–
CC(C)N1CN(c2ccccc2)C2(CCN(CCCC(=O)c3ccc(F)cc3)CC2)C1=O	> 200	5.75	–
CSc1nc(Cl)c2c(n1)Sc1nc3cc4c(cc3n1C2O)OCO4 (configuration not stated)	> 100	0.525	–
Cc1cc(C)nc(NS(=O)(=O)c2ccc(Nc3c4ccccc4nc4c(C(=O)NCCN(C)C)ccc(Cl)c34)cc2)n1	–	–	inactive
COc1ccccc1C1c2cc3c(cc2OC(O)(CO)C1C(=O)O)OCO3 (configuration not stated) (tested in a mixture with another compound)	–	–	inactive
c1ccc(N2CCN(c3ccccn3)CC2)nc1	> 100	> 100	–
CC(C#N)(CCC(=O)O)N=NC(C)(C#N)CCC(=O)O (configuration not stated)	> 891	> 891	–
Nc1ccc2c(c1)C(=O)OC2(C(F)(F)F)C(F)(F)F	> 200	93.3	–
C1CN(SSN2CCSCC2)CCS1	> 5.37	> 5.37	–
Cn1c(=O)c2nc(-c3cccnc3)cnc2n(C)c1=O	> 200	> 200	–
CC1(CO)CCCC2(C)C1CCC1CC3C=CC12C1C(=O)OC(=O)C31 (configuration not stated)	> 200	83.2	–
CCCC/S(C)=N/S(=O)(=O)c1ccc(C)cc1 (configuration not stated)	> 200	> 200	–
CN(C)C(=O)Nc1c([N+](=O)[O-])cc(C(F)(F)F)cc1[N+](=O)[O-]	–	–	inactive
O=C(O)CCCCC[n+]1ccccc1	> 200	> 200	–
c1ccc2c(c1)oc1ccc3nsnc3c12	> 15.8	> 15.8	–
Cc1n[nH]c(=O)c2cc3oc4ccccc4c3n12	> 107	32.4	–
COC(=O)c1ccc(C(=O)NC(Cc2ccc(Oc3cc(CC(NC(=O)c4ccccc4C(=O)OC)C(=O)OC)ccc3OC)cc2)C(=O)OC)cc1 (configuration not stated)	> 200	16.2	–
C[C@]12CCC[C@H](OC=O)C1(O)C[C@H](C(=O)O)CC2 (some centres not stated)	–	–	inactive

SMILES	EC50 [µM]	IC50 [µM]	outcome
CCOc1ccc(/C=C/C(=O)c2sc(NNC(C)=O)nc2C)cc1	> 20.9	> 20.9	–
O=C1CC2(Cl)CN3c4ccccc4C(=O)CC3(Cl)CN2c2ccccc21 (configuration not stated)	> 57.5	> 57.5	–
CCN(CC)CCC(=O)NC1c2ccccc2Oc2ccccc21	> 398	219	–
COC(=O)/C(C#N)=C(/NCCN)Nc1ccccc1	> 200	> 200	–
CCOC(=O)C(=O)C(CCC(=O)c1ccc2ccccc2c1O)C(=O)OCC (configuration not stated)	> 468	389	–
Cc1ccc(C2=C(c3ccccc3)C(Br)(c3ccc(C)cc3)C(c3ccccc3)=C2c2ccc(C)cc2)cc1	> 2.51	> 2.51	–
CC/C(Cl)=N\OC(=O)Nc1ccc(F)cc1F	> 20	3.47	–
COC1(OC)CC2OC1C1N=NN(C(=O)OC(C)(C)C)C21 (configuration not stated)	> 33.1	> 33.1	–
CC(=O)NC1C(OCc2ccccc2)OC(CO)C(O)C1OC(C)C(=O)NC(C)C(=O)NC(CCC(=O)NCCCNc1c2ccccc2nc2cccc([N+](=O)[O-])c12)C(N)=O (configuration not stated)	> 100	1.15	–
O=P1(c2ccccc2)Nc2ccccc2N1c1ccccc1 (configuration not stated)	> 200	38	–
N#Cc1c(-c2ccc([N+](=O)[O-])cc2)c(C#N)c(=O)n(NS(=O)(=O)c2ccccc2)c1O	> 200	> 200	–
Clc1ccc2c(Cl)nc(-c3ccccc3)nc2c1	–	–	inactive
COC(=O)N1CC(=O)C(C(=O)NC23CC4CC(CC(C4)C2)C3)C1 (configuration not stated)	> 776	141	–
N#CC(NNC(=O)Cc1ccccc1)c1cccc(O)c1 (configuration not stated)	> 468	158	–
O=C1c2c(nc3ccccc3c2-c2ccccc2)CN1Nc1ccccc1	> 87.1	> 87.1	–
CC(=O)OCC1OC(n2c3c(c(-c4ccc(Cl)cc4)c(C#N)c2=S)CCCC3)C(OC(C)=O)C(OC(C)=O)C1OC(C)=O (configuration not stated)	> 200	26.3	–
c1ccc(C(CNCCN2CCCCCC2)C2CCCCC2)cc1 (configuration not stated)	> 100	11.5	–
O=S(Cc1ccccc1)/C(=C/NC(=S)Nc1cc(Cl)ccc1Cl)c1ccccc1 (configuration not stated)	> 200	> 200	–
Nc1c(N=Nc2ccc([N+](=O)[O-])cc2)c(S(=O)(=O)O)cc2cc(S(=O)(=O)O)c(N=Nc3ccc(-c4ccc(N=Nc5ccc(O)cc5)cc4)cc3)c(O)c12	> 100	15.1	–
NC(N)=NCCCC(N=c1c2ccccc2n(O)c2ccccc12)C(=O)O (configuration not stated)	–	–	inactive
C[C@@H]1C(=O)c2c(O)cc3c(c2O[C@@H]1C)CCC(C)(C)O3	> 200	47.9	–
CC1CN=C(N(C)C(=O)Nc2ccc(Cl)cc2)S1 (configuration not stated)	–	–	inactive

SMILES	EC50 [µM]	IC50 [µM]	outcome
C[N+](C)(C)C(CSSCC(C(=O)[O-])[N+](C)(C)C)C(=O)[O-] (configuration not stated)	> 200	> 200	–
O=C1NC(=O)C(CCC(=O)c2ccc3ccccc3c2)C(=O)N1	> 110	> 110	–
CCCCCC1CC=CC(NC(=O)OCc2ccccc2)C1/C=C/CCCC1OCCO1 (configuration not stated)	–	–	inactive
COc1cc(C2C(C(=O)Nc3ccccc3C)=C(C)NC(C)=C2C(=O)Nc2ccccc2C)ccc1O	> 363	> 200	–
C/C=C(\N=C=S)C(=O)OC1C(COC(C)=O)OC([C@]2(O)CC(=O)C(=N)C(C(=O)O)=C2O)C(O)C1OC1CC(OC)C(O)([C@@H](C)OC(=O)[C@@H](C)CC)C(C)O1 (some centres not stated)	–	–	inactive
CC12CC3(C)SC(C)(CC(C)(S1)S2)S3	–	–	inactive
O=C1NN=C(c2ccc([N+](=O)[O-])cc2)C1n1nc(-c2ccccc2)c2ccccc2c1=O (configuration not stated)	> 61.7	> 61.7	–
CCCCOP(=O)(OCCCC)/C(C#N)=C/c1ccc(C)o1	> 200	102	–
COC(=O)c1c2c(cc3c1CC1(Cc4ccc(C(C)=O)cc4C1)C3)CCC2 (configuration not stated)	> 200	> 200	–
CSC1=N/C(=C\c2ccc(Cl)cc2)C(=O)N1CN1CCOCC1	> 200	33.1	–
CN1C(=O)C2(C=CC(O)CC2)c2ccccc21 (configuration not stated)	> 200	> 200	–
O=C(Cc1nc2ccccc2s1)Nc1cccc(C(F)(F)F)c1	> 21.4	17.4	–
COc1cc2c(=O)c3ccccc3oc2c(O)c1OC	> 200	> 200	–
COc1cc2cc(C(=O)N3CC(CCl)c4ccc(NCCN)cc43)[nH]c2c(OC)c1OC (configuration not stated)	> 2	0.813	–
CC(C)(C)OC(=O)NC(Cc1ccccc1)C(=O)N[C@H]1c2ccsc2/C(=N/O)[C@H]1O (some centres not stated)	> 200	91.2	–
CC1c2c(cc(=O)n(Cc3ccccc3)c2O)C(=O)N1Cc1ccccc1 (configuration not stated)	> 72.4	61.7	–
O=C(Cc1nc2ccccc2c(=O)n1-c1ccccc1Cl)c1ccncc1	> 5.37	> 5.37	–
Nc1nncc2n[nH]nc12	> 200	174	–
O=C1C(=c2ccc(=C3C(=O)c4ccc([N+](=O)[O-])cc4[N+]3=O)cc2)N([O-])c2cc([N+](=O)[O-])ccc21	> 11.5	> 11.5	–
Cn1c(Nc2ccccc2)c(C=Nc2ccccc2)c(=O)n(C)c1=O	> 100	53.7	–
COC1CC(COCc2ccccc2)CC(OC)O1 (configuration not stated)	> 200	66.1	–
Cc1c(C)c2ccc(OC(C)C(=O)O)cc2oc1=O (configuration not stated)	–	–	inactive

SMILES	EC50 [µM]	IC50 [µM]	outcome
O=c1cc(N2CCCC2)[nH]c(=O)n1-c1ccccc1	> 200	> 200	–
O=C1NCCCc2nonc21	> 200	> 200	–
Cc1cnc2sn(-c3ccc(Oc4ccccc4)cc3)c(=O)c2c1	> 200	10	–
O=c1cc(-c2ccccc2)oc2cccc(O)c12	> 200	> 200	–
NC(N)=NS(=O)(=O)c1ccc(NC(=O)c2cccc3c(NNc4ccc(S(N)(=O)=O)cc4)c4ccccc4nc23)cc1	> 200	28.2	–
CCCCCOCCCCCCCC(=O)OCC1OC(n2cc(C)c(=O)[nH]c2=O)CC1N=[N+]=[N-] (configuration not stated)	–	–	active
COc1ccccc1N1C(=O)CSC1=Nc1ccccc1	> 112	> 112	–
CC(C)OP(=O)(Cc1cc(C(C)(C)C)c(O)c(C(C)(C)C)c1)OC(C)C	> 67.6	> 67.6	–
Clc1ccc(C2=NON(c3ncccn3)C3N=CC=CN23)cc1 (configuration not stated)	> 15.8	> 15.8	–
CCCCOP(=O)(OCCCC)C(NS(=O)(=O)c1ccccc1)(C(=O)OCC)C(F)(F)F (configuration not stated)	> 200	19.1	–
NC1=NCCC1(c1ccccc1)c1ccccn1 (configuration not stated)	> 550	490	–
CC(=O)Nc1ccc(C(=O)OCC2OC(n3cc(C)c(=O)[nH]c3=O)CC2N=[N+]=[N-])cc1 (configuration not stated)	0.148	38.9	–
S=C1N=C(Cl)C2(NN1)c1ccccc1-c1ccccc12	> 200	> 200	–
CC(C)/C(Cl)=N/OC(=O)Nc1ccc(Br)cc1	> 20	3.72	–
C(=C\C(Sc1ccccc1)c1ccccc1)/NNC1=NC(c2ccccc2)C(c2ccccc2)=NN1 (configuration not stated)	> 14.8	> 14.8	–
C/C(CC(=O)Nc1ccc(Cl)cc1)=N\NC(N)=S	> 871	123	–
CCOC(=O)/C(=C\c1ccc(N(C)C)cc1)[Se]c1ccccc1	> 69.2	> 69.2	–
N/N=C1\CCCc2c1no[n+]2[O-]	> 200	> 200	–
O=C1C[C@@H]2C(COC(=O)c3ccccc3)N(OCc3ccccc3)C[C@@H]2O1 (some centres not stated)	> 97.7	> 97.7	–
CCN(CC)C(=O)c1cccc2cccc(OC)c12	–	–	inactive
O=C1O/C(=C(\Br)c2ccccc2)c2ccccc21	> 200	3.63	–
O=C1c2ccccc2-c2nnc3c(c21)Cc1ccccc1C3	> 200	> 200	–

— PubChem BioAssay AID179 (DTP/NCI, 2004)
